From PMC8550792, “Evolution of kinase polypharmacology across HSP90 drug discovery” (Cell Chemical Biology, 2021)

Tests used:
Assay in all cases: biochemical
Assay type in all cases: biochemical
382 unique human kinases [1] = molecular target: T1, 382 unique human kinases (Homo sapiens, UniProt Q02763, Y1108F); conditions: kinase TIE2 (Y1108F), compound 10 uM; for remaining activity at 10 µM: read-out: % Enzyme Activity (relative to DMSO controls)
T1 construct: purchased Reaction Biology (HotSpot contract assay)

382 unique human kinases [2] = molecular target: T2, 382 unique human kinases (Homo sapiens, UniProt Q9NWZ3); conditions: kinase IRAK4, compound 10 uM; for remaining activity at 10 µM: read-out: % Enzyme Activity (relative to DMSO controls)
T2 construct: purchased Reaction Biology (HotSpot contract assay)
T2 sequence (Q9NWZ3 1-460): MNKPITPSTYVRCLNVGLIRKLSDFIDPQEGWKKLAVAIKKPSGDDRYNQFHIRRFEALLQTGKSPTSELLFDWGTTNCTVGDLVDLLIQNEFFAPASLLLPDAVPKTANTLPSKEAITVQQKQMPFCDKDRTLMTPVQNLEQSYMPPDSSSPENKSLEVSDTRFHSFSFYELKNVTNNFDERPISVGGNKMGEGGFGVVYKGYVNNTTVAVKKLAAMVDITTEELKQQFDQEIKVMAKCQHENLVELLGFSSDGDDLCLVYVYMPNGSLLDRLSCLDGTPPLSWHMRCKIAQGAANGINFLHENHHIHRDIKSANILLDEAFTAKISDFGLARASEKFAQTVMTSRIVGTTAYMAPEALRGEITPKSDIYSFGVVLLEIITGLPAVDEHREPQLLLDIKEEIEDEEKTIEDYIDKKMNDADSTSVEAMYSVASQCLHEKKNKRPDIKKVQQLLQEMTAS

382 unique human kinases [3] = molecular target: T3, 382 unique human kinases (Homo sapiens, UniProt Q96GD4); conditions: kinase Aurora B, compound 10 uM; for remaining activity at 10 µM: read-out: % Enzyme Activity (relative to DMSO controls)
T3 construct: purchased Reaction Biology (HotSpot contract assay)

382 unique human kinases [4] = molecular target: T4, 382 unique human kinases (Homo sapiens, UniProt P08922); conditions: ROS/ROS1, 10 uM; for remaining activity at 10 µM: read-out: % Enzyme Activity (relative to DMSO controls)
T4 construct: purchased Reaction Biology (HotSpot contract assay)

382 unique human kinases [5] = molecular target: T5, 382 unique human kinases (Homo sapiens, UniProt P00533, L858R/T790M); conditions: EGFR (L858R, T790M), 10 uM; for remaining activity at 10 µM: read-out: % Enzyme Activity (relative to DMSO controls)
T5 construct: purchased Reaction Biology (HotSpot contract assay)

382 unique human kinases [6] = molecular target: T6, 382 unique human kinases (Homo sapiens, UniProt O43781); conditions: DYRK3, 10 uM; for remaining activity at 10 µM: read-out: % Enzyme Activity (relative to DMSO controls)
T6 construct: purchased Reaction Biology (HotSpot contract assay)
T6 sequence (O43781 1-588): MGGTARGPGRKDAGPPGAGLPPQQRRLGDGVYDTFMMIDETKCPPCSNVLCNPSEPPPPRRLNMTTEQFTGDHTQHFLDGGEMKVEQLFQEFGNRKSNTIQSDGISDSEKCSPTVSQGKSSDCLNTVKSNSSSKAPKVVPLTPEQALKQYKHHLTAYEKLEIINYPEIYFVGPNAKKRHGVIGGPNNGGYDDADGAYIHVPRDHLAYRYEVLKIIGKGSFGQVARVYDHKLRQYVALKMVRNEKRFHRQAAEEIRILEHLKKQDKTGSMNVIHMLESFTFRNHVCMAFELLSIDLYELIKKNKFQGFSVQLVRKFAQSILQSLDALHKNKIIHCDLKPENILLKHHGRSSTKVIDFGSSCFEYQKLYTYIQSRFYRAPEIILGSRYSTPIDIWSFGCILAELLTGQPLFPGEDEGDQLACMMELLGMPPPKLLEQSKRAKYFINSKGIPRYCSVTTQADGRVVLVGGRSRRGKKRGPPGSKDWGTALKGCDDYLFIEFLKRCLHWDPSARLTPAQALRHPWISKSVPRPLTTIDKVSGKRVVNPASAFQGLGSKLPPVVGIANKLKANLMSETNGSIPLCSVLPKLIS

382 unique human kinases [7] = molecular target: T7, 382 unique human kinases (Homo sapiens, UniProt Q16512); conditions: PKN1/PRK1, 10 uM; for remaining activity at 10 µM: read-out: % Enzyme Activity (relative to DMSO controls)
T7 construct: purchased Reaction Biology (HotSpot contract assay)

382 unique human kinases [8] = molecular target: T8, 382 unique human kinases (Homo sapiens, UniProt P00519, Q252H); conditions: ABL1 (Q252H), [ATP] 20 µM, compound 10 uM; for remaining activity at 10 µM: read-out: % Enzyme Activity (relative to DMSO controls)
T8 construct: purchased Reaction Biology (HotSpot contract assay)

382 unique human kinases [9] = molecular target: T9, 382 unique human kinases (Homo sapiens, UniProt Q5S007, I2020T); conditions: LRRK2 (I2020T), [ATP] 10 µM, compound 10 uM; for remaining activity at 10 µM: read-out: % Enzyme Activity (relative to DMSO controls)
T9 construct: purchased Reaction Biology (HotSpot contract assay)

382 unique human kinases [10] = molecular target: T10, 382 unique human kinases (Homo sapiens, UniProt O00141); conditions: SGK1, 10 uM; for remaining activity at 10 µM: read-out: % Enzyme Activity (relative to DMSO controls)
T10 construct: purchased Reaction Biology (HotSpot contract assay)
T10 sequence (O00141 1-431): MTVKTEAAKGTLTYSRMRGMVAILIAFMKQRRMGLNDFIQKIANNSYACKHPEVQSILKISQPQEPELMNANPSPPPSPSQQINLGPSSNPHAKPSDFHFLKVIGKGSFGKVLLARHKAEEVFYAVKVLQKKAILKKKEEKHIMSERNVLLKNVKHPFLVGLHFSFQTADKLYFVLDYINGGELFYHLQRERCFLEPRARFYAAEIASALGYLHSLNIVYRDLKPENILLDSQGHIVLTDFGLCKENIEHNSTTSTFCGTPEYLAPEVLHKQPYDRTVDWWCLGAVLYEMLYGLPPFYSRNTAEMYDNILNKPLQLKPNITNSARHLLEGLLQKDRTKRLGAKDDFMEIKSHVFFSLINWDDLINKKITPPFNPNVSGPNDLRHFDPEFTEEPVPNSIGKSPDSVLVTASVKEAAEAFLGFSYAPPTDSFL

382 unique human kinases [11] = molecular target: T11, 382 unique human kinases (Homo sapiens, UniProt Q8N752); conditions: CK1a1L, 10 uM; for remaining activity at 10 µM: read-out: % Enzyme Activity (relative to DMSO controls)
T11 construct: purchased Reaction Biology (HotSpot contract assay)
T11 sequence (Q8N752 1-337): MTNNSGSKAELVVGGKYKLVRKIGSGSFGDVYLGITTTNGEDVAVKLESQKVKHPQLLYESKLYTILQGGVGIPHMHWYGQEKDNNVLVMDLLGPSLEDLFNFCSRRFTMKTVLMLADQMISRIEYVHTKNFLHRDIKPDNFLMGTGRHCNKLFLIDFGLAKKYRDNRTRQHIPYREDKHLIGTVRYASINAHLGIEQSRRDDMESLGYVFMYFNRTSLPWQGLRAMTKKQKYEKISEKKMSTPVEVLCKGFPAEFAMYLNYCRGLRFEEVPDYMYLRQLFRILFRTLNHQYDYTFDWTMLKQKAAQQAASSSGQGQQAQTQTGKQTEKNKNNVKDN

382 unique human kinases [12] = molecular target: T12, 382 unique human kinases (Homo sapiens, UniProt P10721, V559A); conditions: c-Kit (V559A), [ATP] 100 µM, compound 10 uM; for remaining activity at 10 µM: read-out: % Enzyme Activity (relative to DMSO controls)
T12 construct: purchased Reaction Biology (HotSpot contract assay)

382 unique human kinases [13] = molecular target: T13, 382 unique human kinases (Homo sapiens, UniProt P17612); conditions: PKA, 10 uM; for remaining activity at 10 µM: read-out: % Enzyme Activity (relative to DMSO controls)
T13 construct: purchased Reaction Biology (HotSpot contract assay)

382 unique human kinases [14] = molecular target: T14, 382 unique human kinases (Homo sapiens, UniProt P08581, P991S); conditions: c-MET (P991S), 10 uM; for remaining activity at 10 µM: read-out: % Enzyme Activity (relative to DMSO controls)
T14 construct: purchased Reaction Biology (HotSpot contract assay)

T4 sequence (P08922 28-2347): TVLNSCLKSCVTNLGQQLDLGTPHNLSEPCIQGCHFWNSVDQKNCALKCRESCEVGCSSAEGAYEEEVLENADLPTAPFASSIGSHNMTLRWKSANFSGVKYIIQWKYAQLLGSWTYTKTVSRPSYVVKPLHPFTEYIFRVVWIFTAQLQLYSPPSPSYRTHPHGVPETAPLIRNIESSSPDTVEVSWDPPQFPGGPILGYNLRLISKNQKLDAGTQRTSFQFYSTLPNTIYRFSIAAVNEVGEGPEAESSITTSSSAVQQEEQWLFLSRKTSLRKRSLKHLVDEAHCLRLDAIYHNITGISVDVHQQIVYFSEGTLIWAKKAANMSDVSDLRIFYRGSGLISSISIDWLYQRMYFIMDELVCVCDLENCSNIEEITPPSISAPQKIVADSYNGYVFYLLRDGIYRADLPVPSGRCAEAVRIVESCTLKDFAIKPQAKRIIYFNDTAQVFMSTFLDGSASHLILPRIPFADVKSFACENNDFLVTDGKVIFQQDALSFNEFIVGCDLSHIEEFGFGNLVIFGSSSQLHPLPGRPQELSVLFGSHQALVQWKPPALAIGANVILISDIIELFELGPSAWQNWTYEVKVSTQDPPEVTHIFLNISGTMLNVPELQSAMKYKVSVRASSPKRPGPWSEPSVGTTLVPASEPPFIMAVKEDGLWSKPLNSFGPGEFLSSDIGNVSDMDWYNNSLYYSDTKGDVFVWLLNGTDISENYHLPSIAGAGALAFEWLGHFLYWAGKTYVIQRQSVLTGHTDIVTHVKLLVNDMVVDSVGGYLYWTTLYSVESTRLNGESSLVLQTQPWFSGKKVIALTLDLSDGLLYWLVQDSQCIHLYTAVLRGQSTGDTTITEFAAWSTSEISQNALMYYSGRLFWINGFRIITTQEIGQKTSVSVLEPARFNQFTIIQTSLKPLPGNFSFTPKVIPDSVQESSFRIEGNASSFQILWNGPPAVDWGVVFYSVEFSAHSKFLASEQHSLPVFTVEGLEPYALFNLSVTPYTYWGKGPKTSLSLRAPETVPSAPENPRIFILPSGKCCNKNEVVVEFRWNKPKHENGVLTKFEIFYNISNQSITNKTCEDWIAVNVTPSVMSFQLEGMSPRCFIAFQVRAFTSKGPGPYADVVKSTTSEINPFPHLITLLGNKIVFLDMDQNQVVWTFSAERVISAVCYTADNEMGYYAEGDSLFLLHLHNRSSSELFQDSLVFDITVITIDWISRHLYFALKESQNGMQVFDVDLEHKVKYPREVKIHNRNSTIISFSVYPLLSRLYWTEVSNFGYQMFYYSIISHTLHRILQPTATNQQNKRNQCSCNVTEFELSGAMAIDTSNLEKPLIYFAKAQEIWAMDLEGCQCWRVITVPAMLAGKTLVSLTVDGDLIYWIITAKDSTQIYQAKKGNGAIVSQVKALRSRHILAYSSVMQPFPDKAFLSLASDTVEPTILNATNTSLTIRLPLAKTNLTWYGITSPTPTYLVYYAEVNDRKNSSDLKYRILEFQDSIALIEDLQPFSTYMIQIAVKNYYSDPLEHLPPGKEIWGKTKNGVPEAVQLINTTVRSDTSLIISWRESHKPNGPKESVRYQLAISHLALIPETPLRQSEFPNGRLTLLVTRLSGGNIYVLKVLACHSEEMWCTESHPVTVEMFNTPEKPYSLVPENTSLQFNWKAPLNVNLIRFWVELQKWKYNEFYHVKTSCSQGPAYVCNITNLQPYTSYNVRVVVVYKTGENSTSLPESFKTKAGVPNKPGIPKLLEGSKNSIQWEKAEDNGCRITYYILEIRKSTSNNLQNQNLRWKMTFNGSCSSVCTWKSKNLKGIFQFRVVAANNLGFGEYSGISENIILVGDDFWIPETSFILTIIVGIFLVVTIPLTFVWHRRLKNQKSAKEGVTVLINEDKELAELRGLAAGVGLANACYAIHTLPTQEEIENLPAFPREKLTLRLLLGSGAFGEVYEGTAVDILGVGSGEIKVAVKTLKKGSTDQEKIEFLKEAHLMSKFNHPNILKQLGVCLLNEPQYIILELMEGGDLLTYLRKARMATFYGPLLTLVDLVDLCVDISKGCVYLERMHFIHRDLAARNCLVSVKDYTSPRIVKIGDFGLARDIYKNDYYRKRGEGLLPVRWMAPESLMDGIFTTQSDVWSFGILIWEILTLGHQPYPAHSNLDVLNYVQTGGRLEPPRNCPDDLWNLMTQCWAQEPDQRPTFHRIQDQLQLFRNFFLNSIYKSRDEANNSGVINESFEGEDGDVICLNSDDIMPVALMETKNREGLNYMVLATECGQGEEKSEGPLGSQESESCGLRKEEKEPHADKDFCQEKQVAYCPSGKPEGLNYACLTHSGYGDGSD
T3 sequence (Q96GD4 whole entry): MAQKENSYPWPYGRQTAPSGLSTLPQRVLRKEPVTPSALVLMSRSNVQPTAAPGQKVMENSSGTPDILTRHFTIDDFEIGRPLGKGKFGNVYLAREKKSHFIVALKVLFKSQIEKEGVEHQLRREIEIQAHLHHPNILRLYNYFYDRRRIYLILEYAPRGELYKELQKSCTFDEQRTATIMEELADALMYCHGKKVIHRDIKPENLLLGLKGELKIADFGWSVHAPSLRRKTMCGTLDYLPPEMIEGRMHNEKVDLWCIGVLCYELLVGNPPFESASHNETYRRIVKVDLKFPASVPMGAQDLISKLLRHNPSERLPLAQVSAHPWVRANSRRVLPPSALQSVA
T1 sequence (Q02763 23-1124 Y1108F): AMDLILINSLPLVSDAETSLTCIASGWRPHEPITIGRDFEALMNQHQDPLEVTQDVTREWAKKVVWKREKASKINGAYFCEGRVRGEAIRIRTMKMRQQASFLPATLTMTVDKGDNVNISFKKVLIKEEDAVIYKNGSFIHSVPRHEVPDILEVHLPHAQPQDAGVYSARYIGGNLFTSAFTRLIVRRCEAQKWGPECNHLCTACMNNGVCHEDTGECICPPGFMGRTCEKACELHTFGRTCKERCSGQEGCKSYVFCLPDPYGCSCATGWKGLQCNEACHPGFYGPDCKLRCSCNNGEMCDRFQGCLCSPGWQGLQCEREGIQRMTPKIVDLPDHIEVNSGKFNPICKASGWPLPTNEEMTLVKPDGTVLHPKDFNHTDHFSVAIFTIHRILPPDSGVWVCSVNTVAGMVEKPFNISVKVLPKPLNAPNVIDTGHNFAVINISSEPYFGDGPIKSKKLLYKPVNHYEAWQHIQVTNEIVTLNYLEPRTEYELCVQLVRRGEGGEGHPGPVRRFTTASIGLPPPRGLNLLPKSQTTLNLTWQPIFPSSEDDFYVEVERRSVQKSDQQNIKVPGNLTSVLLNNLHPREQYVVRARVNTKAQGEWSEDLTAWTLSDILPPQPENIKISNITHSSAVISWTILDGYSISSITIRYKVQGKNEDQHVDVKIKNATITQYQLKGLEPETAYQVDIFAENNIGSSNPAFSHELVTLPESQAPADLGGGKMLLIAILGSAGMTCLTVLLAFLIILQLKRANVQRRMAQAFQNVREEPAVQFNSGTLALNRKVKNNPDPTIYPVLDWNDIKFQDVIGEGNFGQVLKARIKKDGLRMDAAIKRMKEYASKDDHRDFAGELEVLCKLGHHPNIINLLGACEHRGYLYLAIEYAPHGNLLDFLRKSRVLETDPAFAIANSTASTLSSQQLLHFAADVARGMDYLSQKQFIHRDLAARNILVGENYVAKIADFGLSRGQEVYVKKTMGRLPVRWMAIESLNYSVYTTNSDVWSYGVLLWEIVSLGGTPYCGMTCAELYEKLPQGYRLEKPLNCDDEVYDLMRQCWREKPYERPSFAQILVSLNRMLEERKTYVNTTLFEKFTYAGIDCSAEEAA
T7 sequence (Q16512 whole entry): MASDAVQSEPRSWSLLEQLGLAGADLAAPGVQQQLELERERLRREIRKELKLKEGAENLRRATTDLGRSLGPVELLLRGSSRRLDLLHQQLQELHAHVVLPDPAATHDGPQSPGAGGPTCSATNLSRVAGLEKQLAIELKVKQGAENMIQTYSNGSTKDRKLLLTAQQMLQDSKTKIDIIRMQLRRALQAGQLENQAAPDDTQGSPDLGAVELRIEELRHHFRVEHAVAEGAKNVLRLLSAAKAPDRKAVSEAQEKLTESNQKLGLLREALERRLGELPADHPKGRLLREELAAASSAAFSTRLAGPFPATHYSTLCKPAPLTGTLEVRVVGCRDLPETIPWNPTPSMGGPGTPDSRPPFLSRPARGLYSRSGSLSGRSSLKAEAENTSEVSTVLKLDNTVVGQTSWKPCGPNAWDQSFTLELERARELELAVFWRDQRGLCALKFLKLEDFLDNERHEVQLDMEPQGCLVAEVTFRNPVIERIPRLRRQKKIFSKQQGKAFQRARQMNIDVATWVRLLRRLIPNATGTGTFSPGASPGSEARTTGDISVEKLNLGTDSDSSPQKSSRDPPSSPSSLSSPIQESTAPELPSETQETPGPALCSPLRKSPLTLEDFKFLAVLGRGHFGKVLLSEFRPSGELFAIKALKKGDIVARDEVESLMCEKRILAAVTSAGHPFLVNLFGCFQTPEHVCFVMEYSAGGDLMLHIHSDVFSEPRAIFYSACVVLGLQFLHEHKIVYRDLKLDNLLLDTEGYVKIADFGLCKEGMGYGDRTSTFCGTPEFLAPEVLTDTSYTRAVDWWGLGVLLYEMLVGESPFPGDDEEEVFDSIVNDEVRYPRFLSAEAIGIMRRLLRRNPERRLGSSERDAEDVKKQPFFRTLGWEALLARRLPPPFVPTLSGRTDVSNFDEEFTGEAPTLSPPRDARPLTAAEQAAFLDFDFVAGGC

CC(C)c1cc(-c2n[nH]c(=O)n2-c2ccc3c(ccn3C)c2)c(O)cc1O [Ganetespib (STA9090)]
remaining activity at 10 µM (382 unique human kinases [1]): 90%
remaining activity at 10 µM (382 unique human kinases [2]): 81.5%
remaining activity at 10 µM (382 unique human kinases [3]): 83.6%
remaining activity at 10 µM (382 unique human kinases [4]): 70.2%
remaining activity at 10 µM (382 unique human kinases [5]): 91.5%
remaining activity at 10 µM (382 unique human kinases [6]): 67.1%
remaining activity at 10 µM (382 unique human kinases [7]): 71.7%

CCNC(=O)c1noc(-c2cc(C(C)C)c(O)cc2O)c1-c1ccc(CN2CCOCC2)cc1 [Luminespib]
% Enzyme Activity (relative to DMSO controls) (382 unique human kinases [8]): 5.25%
remaining activity at 10 µM (382 unique human kinases [8]): 5.39%
% Enzyme Activity (relative to DMSO controls) (382 unique human kinases [9]): 86.48%
remaining activity at 10 µM (382 unique human kinases [9]): 86.5%
% Enzyme Activity (relative to DMSO controls) (382 unique human kinases [10]): 99.71%
remaining activity at 10 µM (382 unique human kinases [10]): 100%
% Enzyme Activity (relative to DMSO controls) (382 unique human kinases [11]): 99.86%
remaining activity at 10 µM (382 unique human kinases [11]): 100%
% Enzyme Activity (relative to DMSO controls) (382 unique human kinases [12]): 61.54%
remaining activity at 10 µM (382 unique human kinases [12]): 61.6%
% Enzyme Activity (relative to DMSO controls) (382 unique human kinases [13]): 108.65%
remaining activity at 10 µM (382 unique human kinases [13]): 111%
% Enzyme Activity (relative to DMSO controls) (382 unique human kinases [14]): 98.52%
remaining activity at 10 µM (382 unique human kinases [14]): 100%

CCNC(=O)c1noc(-c2cc(C(C)C)c(O)cc2O)c1-c1ccc(CN2CCOCC2)cc1 [Luminespib (AUY-922)]
% Enzyme Activity (relative to DMSO controls) (382 unique human kinases [1]): 108.40%
remaining activity at 10 µM (382 unique human kinases [1]): 110%
% Enzyme Activity (relative to DMSO controls) (382 unique human kinases [2]): 106.93%
remaining activity at 10 µM (382 unique human kinases [2]): 118%
% Enzyme Activity (relative to DMSO controls) (382 unique human kinases [3]): 100.09%
remaining activity at 10 µM (382 unique human kinases [3]): 104%
% Enzyme Activity (relative to DMSO controls) (382 unique human kinases [4]): 89.10%
remaining activity at 10 µM (382 unique human kinases [4]): 90.8%
% Enzyme Activity (relative to DMSO controls) (382 unique human kinases [5]): 61.22%
remaining activity at 10 µM (382 unique human kinases [5]): 73.8%
% Enzyme Activity (relative to DMSO controls) (382 unique human kinases [6]): 94.13%
remaining activity at 10 µM (382 unique human kinases [6]): 94.8%
% Enzyme Activity (relative to DMSO controls) (382 unique human kinases [7]): 73.04%
remaining activity at 10 µM (382 unique human kinases [7]): 75.6%

CC(C)c1cc(-c2n[nH]c(=O)n2-c2ccc3c(ccn3C)c2)c(O)cc1O [Ganetespib]
remaining activity at 10 µM (382 unique human kinases [8]): 3.59%
remaining activity at 10 µM (382 unique human kinases [9]): 39%
remaining activity at 10 µM (382 unique human kinases [10]): 99%
remaining activity at 10 µM (382 unique human kinases [11]): 98.3%
remaining activity at 10 µM (382 unique human kinases [12]): 43.9%
remaining activity at 10 µM (382 unique human kinases [13]): 91%
remaining activity at 10 µM (382 unique human kinases [14]): 109%
